Activity calls are given as the source filed them. The rule behind the calls is not given here. Residues, ends and D or L forms follow the SMILES beside them. *: point of attachment. X1 = O=C(C*)NCCOCCOCC(=O)Nc1ccc2[nH]c(=O)n(C3CCN(Cc4ccc(-c5nc6cc[nH]c(=O)c6cc5-c5ccccc5)cc4)CC3)c2c1
How the values were obtained:
[1] = target: T1, AKT1/PPP1CA (Homo sapiens) (UniProt P62136+P31749); assay: Induction of PPI-mediated AKT dephosphorylation in human LnCaP cells assessed as increase in AKT S473 dephosphorylation at 10 uM incubated for 8 hrs by Western blot analysis; type: cell-based
T1 sequence (P31749 whole entry, looked up): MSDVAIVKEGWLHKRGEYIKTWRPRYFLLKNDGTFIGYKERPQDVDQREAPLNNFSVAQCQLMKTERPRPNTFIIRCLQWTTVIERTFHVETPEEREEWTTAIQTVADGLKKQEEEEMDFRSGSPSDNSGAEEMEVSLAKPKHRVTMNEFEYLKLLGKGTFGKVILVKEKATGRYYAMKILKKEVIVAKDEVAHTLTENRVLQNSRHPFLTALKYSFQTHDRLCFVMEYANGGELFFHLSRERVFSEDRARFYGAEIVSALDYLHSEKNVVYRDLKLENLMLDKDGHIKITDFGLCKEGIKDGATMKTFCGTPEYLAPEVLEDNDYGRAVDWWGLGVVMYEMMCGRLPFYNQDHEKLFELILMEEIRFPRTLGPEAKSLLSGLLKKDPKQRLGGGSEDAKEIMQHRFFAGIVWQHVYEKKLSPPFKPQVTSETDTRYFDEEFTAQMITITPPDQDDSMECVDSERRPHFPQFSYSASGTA
T1 sequence (P62136 whole entry, looked up): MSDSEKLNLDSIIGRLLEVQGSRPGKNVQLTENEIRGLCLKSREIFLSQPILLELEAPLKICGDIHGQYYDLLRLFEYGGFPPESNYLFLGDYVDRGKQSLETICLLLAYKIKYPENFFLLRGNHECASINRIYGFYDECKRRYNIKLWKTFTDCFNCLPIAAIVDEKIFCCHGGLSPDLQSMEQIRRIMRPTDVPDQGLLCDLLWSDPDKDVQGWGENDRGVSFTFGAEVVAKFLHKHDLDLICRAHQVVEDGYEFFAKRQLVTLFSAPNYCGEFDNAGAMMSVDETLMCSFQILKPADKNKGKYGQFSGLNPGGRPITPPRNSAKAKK

[2] = target: T1, AKT1/PPP1CA (Homo sapiens); assay: Induction of PPI-mediated AKT dephosphorylation in human PC3 cells assessed as increase in AKT T308 dephosphorylation at 10 uM incubated for 8 hrs by Western blot analysis; type: cell-based
[3] = target: T1, AKT1/PPP1CA (Homo sapiens); assay: Induction of PPI-mediated AKT dephosphorylation in human LnCaP cells assessed as reduction in S6 phosphorylation at 10 uM incubated for 8 hrs by Western blot analysis; type: cell-based
[4] = target: T1, AKT1/PPP1CA (Homo sapiens); assay: Induction of PPI-mediated AKT dephosphorylation in human PC3 cells assessed as increase in AKT S473 dephosphorylation at 10 uM incubated for 8 hrs by Western blot analysis; type: cell-based
[5] = target: T1, AKT1/PPP1CA (Homo sapiens); assay: Induction of PPI-mediated AKT dephosphorylation in human LnCaP cells assessed as increase in AKT T308 dephosphorylation at 10 uM incubated for 6 and 8 hrs by Western blot analysis; type: cell-based
[6] = target: T1, AKT1/PPP1CA (Homo sapiens); assay: Induction of PPI-mediated AKT dephosphorylation in human MCF7/neo HER2 cells assessed as increase in AKT […] dephosphorylation at 10 uM incubated for 8 hrs by Western blot analysis; type: cell-based
[7] = target: T1, AKT1/PPP1CA (Homo sapiens); assay: Induction of PPI-mediated AKT dephosphorylation in human LnCaP cells assessed as increase in AKT T308 dephosphorylation at 10 uM incubated for 8 hrs in presence of PPI siRNA by Western blot analysis; type: cell-based
[8] = target: T1, AKT1/PPP1CA (Homo sapiens); assay: Induction of PPI-mediated AKT dephosphorylation in human LnCaP cells assessed as increase in AKT T308 dephosphorylation at 10 uM incubated for 8 hrs by Western blot analysis; type: cell-based
[9] = target: T1, AKT1/PPP1CA (Homo sapiens); assay: Induction of PPI-mediated AKT dephosphorylation in human MCF7/neo HER2 cells assessed as increase in AKT T308dephosphorylation at 10 uM incubated for 8 hrs by Western blot analysis; type: cell-based
[10] = target: T1, AKT1/PPP1CA (Homo sapiens); assay: Induction of PPI-mediated AKT dephosphorylation in human LnCaP cells assessed as increase in AKT dephosphorylation at 50 uM incubated for 8 hrs by Western blot analysis; type: cell-based
[11] = target: T1, AKT1/PPP1CA (Homo sapiens); assay: Induction of PPI (unknown origin)-mediated pAKT (T308) (unknown origin) dephosphorylation incubated for 1 hr by Western blot analysis; type: protein assay
HCC827 = assay: Induction of dephosphorylation of EGFR Y1068 in human HCC827 cells at 10 uM incubated for 8 hrs by Western blot analysis; type: functional, cell-based
[12] = target: EGFR/PPP1CA (Homo sapiens) (UniProt P00533+P62136); assay: Induction of PPI-mediated EGFR dephosphorylation in human HCC827 cells transfected with human Halo/FLAG-tagged PP1CA assessed as increase in EGFR Y1068 dephosphorylation at 10 uM incubated for 8 hrs by Western blot analysis; type: cell-based
Chain of EGFR/PPP1CA (Homo sapiens) (P00533 whole entry, looked up): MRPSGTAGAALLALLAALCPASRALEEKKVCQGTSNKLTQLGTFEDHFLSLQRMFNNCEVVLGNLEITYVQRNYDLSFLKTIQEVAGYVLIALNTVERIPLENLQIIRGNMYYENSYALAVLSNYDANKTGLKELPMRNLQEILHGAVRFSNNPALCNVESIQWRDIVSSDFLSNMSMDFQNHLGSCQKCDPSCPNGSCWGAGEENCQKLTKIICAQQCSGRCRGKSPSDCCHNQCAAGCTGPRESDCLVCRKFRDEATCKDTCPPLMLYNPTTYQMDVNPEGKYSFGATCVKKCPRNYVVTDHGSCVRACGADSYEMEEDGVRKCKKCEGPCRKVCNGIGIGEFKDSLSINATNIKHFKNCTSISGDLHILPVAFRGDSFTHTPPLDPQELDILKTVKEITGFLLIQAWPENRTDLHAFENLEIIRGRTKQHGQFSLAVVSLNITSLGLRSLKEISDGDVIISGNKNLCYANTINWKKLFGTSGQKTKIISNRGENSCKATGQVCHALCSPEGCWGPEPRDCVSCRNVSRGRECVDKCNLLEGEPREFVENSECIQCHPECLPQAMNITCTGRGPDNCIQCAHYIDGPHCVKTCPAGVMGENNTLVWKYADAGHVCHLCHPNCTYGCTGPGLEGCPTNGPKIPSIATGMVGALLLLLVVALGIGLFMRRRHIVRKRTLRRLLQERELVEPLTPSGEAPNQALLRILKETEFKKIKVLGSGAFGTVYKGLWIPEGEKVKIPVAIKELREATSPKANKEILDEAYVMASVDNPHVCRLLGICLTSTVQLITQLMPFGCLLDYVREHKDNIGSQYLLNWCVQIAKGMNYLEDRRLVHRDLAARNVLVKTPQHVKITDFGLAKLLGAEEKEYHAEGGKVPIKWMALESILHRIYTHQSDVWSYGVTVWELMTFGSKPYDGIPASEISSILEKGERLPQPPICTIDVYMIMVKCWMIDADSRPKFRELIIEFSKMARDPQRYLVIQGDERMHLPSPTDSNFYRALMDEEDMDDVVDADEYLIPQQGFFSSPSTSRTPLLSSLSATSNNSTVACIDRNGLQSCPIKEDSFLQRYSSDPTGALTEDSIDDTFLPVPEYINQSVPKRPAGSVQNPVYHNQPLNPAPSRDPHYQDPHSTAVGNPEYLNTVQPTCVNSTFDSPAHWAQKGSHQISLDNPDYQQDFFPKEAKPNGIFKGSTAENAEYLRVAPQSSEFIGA
Chain of EGFR/PPP1CA (Homo sapiens) (P62136 whole entry, looked up): as the sequence (P62136 whole entry, looked up) above

[13] = target: T1, AKT1/PPP1CA (Homo sapiens); assay: Induction of PPI-mediated AKT dephosphorylation in human LnCaP cells at 0.1 to 10 uM incubated for 2 hrs by Western blot analysis; type: cell-based
[14] = target: T1, AKT1/PPP1CA (Homo sapiens); assay: Induction of PPI (unknown origin)-mediated pAKT (T308) (unknown origin) dephosphorylation at 0.25 to 10 uM incubated for 1 hr by Western blot analysis; type: protein assay
[15] = target: T1, AKT1/PPP1CA (Homo sapiens); assay: Induction of PPI-mediated AKT dephosphorylation in human PC3 cells transfected with human Halo/FLAG-tagged PP1CA at 10 uM incubated for 8 hrs by Western blot analysis; type: cell-based
[16] = target: T1, AKT1/PPP1CA (Homo sapiens); assay: Induction of PPI-mediated AKT dephosphorylation in human MCF7/neo HER2 cells transfected with human Halo/FLAG-tagged PP1CA at 10 uM incubated for 8 hrs by Western blot analysis; type: cell-based
[17] = target: T1, AKT1/PPP1CA (Homo sapiens); assay: Induction of PPI-mediated AKT dephosphorylation in human LnCaP cells transfected with human Halo/FLAG-tagged PP1CA at 10 uM incubated for 8 hrs by Western blot analysis; type: cell-based

## CC(=O)N[C@@H](CSCC(=O)NCCOCCOCC(=O)Nc1ccc2[nH]c(=O)n(C3CCN(Cc4ccc(-c5nc6cc[nH]c(=O)c6cc5-c5ccccc5)cc4)CC3)c2c1)C(=O)N[C@@H](CCCNC(=N)N)C(=O)N[C@H](C(=O)N[C@@H](CO)C(=O)N(C)[C@@H](Cc1ccccc1)C(=O)O)C(C)C
[1]
  Activity: Active
[2]
  Activity: Active
[3]
  Activity: Active
[4]
  Activity: Active
[5]
  Activity: Active
[6]
  Activity: Active
[7]
  Activity: inactive
[8]
  Activity: Active
[9]
  Activity: Active

## CC(=O)N[C@@H](CSCC(=O)NCCOCCOCCOCC(=O)N(C)CCN(C[C@@H](C(=O)N1CCN(c2ncnc3c2[C@H](C)C[C@H]3O)CC1)c1ccc(Cl)cc1)C(C)C)C(=O)N[C@@H](CCCNC(=N)N)C(=O)N[C@H](C(=O)N[C@@H](CO)C(=O)N[C@@H](C)C(=O)O)C(C)C
[1]
  Activity: inactive
[10]
  Activity: Active
[8]
  Activity: inactive

## CC(=O)Nc1ccc2[nH]c(=O)n(C3CCN(Cc4ccc(-c5nc6cc[nH]c(=O)c6cc5-c5ccccc5)cc4)CC3)c2c1
[11]
  Activity: Dose-dependent effect

## C=CC(=O)Nc1cc(Nc2nccc(-c3cn(C)c4ccccc34)n2)c(OC)cc1N(C)CCN1CCN(C(=O)COCCOCCOCCCCCCCl)CC1
HCC827
  Activity: Active
[12]
  Activity: Active

## CC[C@H](C)[C@H](NC(=O)[C@@H](NC(=O)[C@H](CCC(=O)O)NC(=O)[C@H](C)NC(=O)[C@H](C)NC(=O)[C@H](CCC(=O)O)NC(=O)[C@H](C)NC(=O)[C@H](Cc1ccccc1)NC(=O)[C@@H](NC(=O)[C@@H](NC(=O)[C@H](CCCNC(=N)N)NC(=O)[C@H](C)NC(=O)[C@H](CC(N)=O)NC(=O)[C@H](CCCCN)NC(=O)[C@H](CCCNC(=N)N)NC(=O)[C@H](CCCCN)NC(=O)[C@H](CCCNC(=N)N)NC(=O)[C@H](CCCCN)NC(=O)[C@@H]1CCCN1C(=O)[C@H](CCCNC(=N)N)NC(=O)[C@H](CSCC(=O)NCCOCCOCC(=O)Nc1ccc2[nH]c(=O)n(C3CCN(Cc4ccc(-c5nc6cc[nH]c(=O)c6cc5-c5ccccc5)cc4)CC3)c2c1)NC(C)=O)C(C)C)[C@@H](C)O)[C@@H](C)CC)C(=O)O (Ac-C(X1)RPKRKRKNARVTFAEAAEII-OH)
[13]
  Activity: inactive
[14]
  Activity: Active

## O=C(CCC(=O)NCCOCCOCC(=O)Nc1ccc2[nH]c(=O)n(C3CCN(Cc4ccc(-c5nc6cc[nH]c(=O)c6cc5-c5ccccc5)cc4)CC3)c2c1)NCCOCCOCCCCCCCl
[15]
  Activity: Active
[16]
  Activity: Active
[17]
  Activity: Active

## CC(=O)N[C@@H](CSCC(=O)NCCOCCOCC(=O)Nc1ccc2[nH]c(=O)n(C3CCN(Cc4ccc(-c5nc6cc[nH]c(=O)c6cc5-c5ccccc5)cc4)CC3)c2c1)C(=O)N[C@@H](CCCNC(=N)N)C(=O)N[C@H](C(=O)N[C@@H](CO)C(=O)N[C@@H](C)C(=O)O)C(C)C
[1]
  Activity: inactive
[2]
  Activity: inactive
[3]
  Activity: Active
[4]
  Activity: inactive
[5]
  Activity: inactive
[6]
  Activity: inactive
[8]
  Activity: inactive
[9]
  Activity: inactive

— ChEMBL document CHEMBL4354839, “Heterobifunctional Molecules Induce Dephosphorylation of Kinases-A Proof of Concept Study” (J Med Chem, 2020)
